Measured values taken from patent US5475014A, “Oxazolidone derivative” (Eisai Co., Ltd., priority 1991, dated 1995).
Where a name gives a salt, the structure may show the parent alone.

Legend:
MAO-B = target: T1, MAO-B (Rattus norvegicus, UniProt P19643); test: MAO-B inhibition activity with rat forebrain (14C-PEA substrate); type: biochemical, rat (male Wistar); settings: for inhibition at 1 µM / Inhibiting activity MAO-B (% at 10^-6 M): 10^-6 M; for inhibition at 1 µM: read-out: Inhibiting activity MAO-B (% at 10^-6 M); for IC50: PEA 20 μM, read-out: Inhibiting activity MAO-B, IC50
T1 construct: suspension of 1 part by volume of the forebrains of male Wistar rats; from tissue; host or cells: forebrain of male Wistar rats, suspension in potassium phosphate buffer
T1 sequence (P19643 1-520): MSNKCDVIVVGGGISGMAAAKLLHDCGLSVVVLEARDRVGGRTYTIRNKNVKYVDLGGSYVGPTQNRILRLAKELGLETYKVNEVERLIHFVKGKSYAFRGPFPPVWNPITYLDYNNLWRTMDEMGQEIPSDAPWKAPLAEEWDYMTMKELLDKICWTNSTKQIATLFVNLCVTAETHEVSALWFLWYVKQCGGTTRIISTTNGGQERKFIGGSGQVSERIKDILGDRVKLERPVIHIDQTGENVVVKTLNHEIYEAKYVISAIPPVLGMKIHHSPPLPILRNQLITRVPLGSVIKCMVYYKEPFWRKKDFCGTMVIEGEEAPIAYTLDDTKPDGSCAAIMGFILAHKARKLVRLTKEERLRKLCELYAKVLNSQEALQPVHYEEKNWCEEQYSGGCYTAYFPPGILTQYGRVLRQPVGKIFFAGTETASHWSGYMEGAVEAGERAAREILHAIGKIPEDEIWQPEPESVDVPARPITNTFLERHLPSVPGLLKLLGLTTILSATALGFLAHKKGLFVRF
Experimental: (§1) Determination of MAO inhibition activity with the use of rat forebrain:
(§2) The MAO inhibition activity was determined by a method of Prada et al. (J. Pharmacol. Exp. Ther., 248, 400-414 (1989)).
(§3) The enzyme reaction was conducted in 300 μl of a solution having the following composition:
(§4) ^14 C-labelled enzyme substrate
(§5) The enzyme source used was a suspension of 1 part by volume of the forebrains of male Wistar rats in 5 parts by volume of a 0.1M potassium phosphate buffer (pH 7.4). The enzyme source was mixed with the test compound and the mixture was prewarmed at 37° C. for 10 min. Then the enzyme substrate was added thereto to initiate the enzyme reaction. After 10 min, 200 μl of 2N hydrochloric acid was added to terminate the reaction.
(§6) As the substrates for MAO-A and MAO-B, 5-HT (serotonin) and PEA (β-phenethylamine) each labelled with ^14 C were used, respectively. The specific radioactivities of 5-HT and PEA were regulated to 11.1 MBq/mmol and 29.6 MBq/mmol, respectively, and the concentrations of them were 200 μM and 20 μM, respectively, in the reaction.
(§7) The test compound was dissolved in distilled water so that an intended concentration could be obtained in the enzyme reaction. When the test compound was insoluble in water, it was dissolved in dimethyl sulfoxide to obtain a 10% solution.
(§8) Diethyl ether and n-heptane were used as […], respectively. After the termination of the enzyme reaction, 3 ml of the solvent was added to the reaction mixture and shaken for 10 min. After centrifugation at 3,000 rpm for about 10 min, the lower aqueous layer was frozen in dry ice/acetone. The upper organic layer was recovered by decantation and the radioactivity thereof was determined with a liquid scintillation counter.
(§9) The inhibiting activities of the test compounds against MAO A and MAO B are given at the concentrations of 10^-7 M and 10^-6 M or by IC50 values.

MAO-A = target: T2, MAO-A (Rattus norvegicus, UniProt P21396); test: MAO-A inhibition activity with rat forebrain (14C-5-HT substrate); type: biochemical, rat (male Wistar); settings: for inhibition at 0.1 µM / Inhibiting activity MAO-A (% at 10^-7 M): 10^-7 M; for inhibition at 0.1 µM: read-out: Inhibiting activity MAO-A (% at 10^-7 M); for IC50: 5-HT 200 μM, read-out: Inhibiting activity MAO-A, IC50
T2 construct: suspension of 1 part by volume of the forebrains of male Wistar rats; from tissue; host or cells: forebrain of male Wistar rats, suspension in potassium phosphate buffer
T2 sequence (P21396 1-526): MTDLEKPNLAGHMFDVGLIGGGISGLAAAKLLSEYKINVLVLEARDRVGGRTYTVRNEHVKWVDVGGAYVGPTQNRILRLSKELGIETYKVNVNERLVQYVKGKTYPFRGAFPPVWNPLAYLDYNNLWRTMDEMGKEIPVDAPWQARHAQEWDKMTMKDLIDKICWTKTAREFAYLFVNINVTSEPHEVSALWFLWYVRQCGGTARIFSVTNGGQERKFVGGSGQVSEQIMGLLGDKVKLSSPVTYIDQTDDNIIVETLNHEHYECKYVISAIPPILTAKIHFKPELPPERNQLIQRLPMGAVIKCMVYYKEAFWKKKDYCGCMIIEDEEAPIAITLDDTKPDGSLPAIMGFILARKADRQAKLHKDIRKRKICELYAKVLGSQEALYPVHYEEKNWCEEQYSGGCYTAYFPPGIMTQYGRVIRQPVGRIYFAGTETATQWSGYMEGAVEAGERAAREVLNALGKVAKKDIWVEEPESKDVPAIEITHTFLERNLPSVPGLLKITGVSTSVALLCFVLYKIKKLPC
Experimental: as §1, §2, §3, §4, §5, §6, §7, §8, §9

Compound	inhibition at 1 µM (MAO-B) [%]	inhibition at 0.1 µM (MAO-A) [%]	IC50 (MAO-A) [µM]	also measured
COCC1CN(c2ccc3nc(COC(=O)c4ccccc4)sc3c2)C(=O)O1 (centres unmarked) [Example 1, 3-(2-Benzoyloxymethylbenzothiazol-6-yl)-5-methoxymethyl-2-oxazolidinone]	15	93	–	–
COCC1CN(c2ccc3nc(CO)sc3c2)C(=O)O1 (centres unmarked) [Example 2, 3-(2-Hydroxymethylbenzothiazol-6-yl)-5-methoxymethyl-2-oxazolidinone]	11	64	–	–
COCC1CN(c2ccc3nc(COCC#N)sc3c2)C(=O)O1 (centres unmarked) [Example 3]	11	–	0.005	–
COCC1CN(c2ccc3nc(CNCC#N)sc3c2)C(=O)O1 (centres unmarked) [Example 4, 3-[(2-Cyanomethylaminomethylbenzothiazol)-6-yl]-5-methoxymethyl-2-oxazolidinone]	13	–	0.039	–
COCC1CN(c2ccc3nc(C4CCC(=O)O4)sc3c2)C(=O)O1 (centres unmarked) [Example 5, 3-[2-(5-Oxotetrahydrofuran-2-yl)benzothiazol-6-ul]-5methoxymethyl-2-oxazolidinone]	11	–	–	Inhibiting activity MAO-A (% at 10^-7 M) (MAO-A): 78%
COC[C@H]1CN(c2ccc3nc(C4CCC(O)O4)sc3c2)C(=O)O1 (some centres unmarked) [Example 7]	10	24	–	–
COCC1CN(c2ccc3nc(C(O)CC=NO)sc3c2)C(=O)O1 (centres unmarked) [Example 8, 3-[2-(1-Hydroxy-3-hydroxyiminopropyl)benzothiazol-6-yl]-5-methoxymethyl-2-oxazolidinone]	13	80	–	–
COC[C@H]1CN(c2ccc3nc([C@@H](O)CCC#N)sc3c2)C(=O)O1 [Example 9, 3-[2-(1(S)-Hydroxy-3-cyanopropyl)benzothiazol-6-yl]-5(R)-methoxymethyl-2-oxazolidinone]	13	87	–	–
COC[C@H]1CN(c2ccc3nc(N4CCC(C#N)CC4)sc3c2)C(=O)O1 [Example 13, (R)-3-[2-(4-Cyanopiperidino)benzothiazol-6-yl]-5-methoxymethy]-2-oxazolidinone hydrochloride]	–	–	0.29	IC50 (MAO-B): 598 µM
COCC1CN(c2ccc3nc(CCCC#N)sc3c2)C(=O)O1 (centres unmarked) [Example 14]	–	–	0.014	IC50 (MAO-B): 579 µM
COCC1CN(c2ccc3nc(CCC#N)sc3c2)C(=O)O1 (centres unmarked) [Example 15]	–	–	0.256	IC50 (MAO-B): 487 µM
COC[C@H]1CN(c2ccc3nc(CCCC#N)sc3c2)C(=O)O1 [Example 16]	17	71	–	–
COC[C@@H]1CN(c2ccc3nc(CCCC#N)sc3c2)C(=O)O1 [Example 17]	9	24	–	–
N#CCCCc1nc2ccc(N3C[C@H](CO)OC3=O)cc2s1 [Example 18]	–	–	0.021	IC50 (MAO-B): 930 µM
N#CCCCc1nc2ccc(N3C[C@@H](CO)OC3=O)cc2s1 [Example 19]	16	61	–	–
COCC1CN(c2ccc3nc(CCCCC#N)sc3c2)C(=O)O1 (centres unmarked) [Example 20]	14	15	–	–
COCC1CN(c2ccc3nc(/C=C/CCC#N)sc3c2)C(=O)O1 (centres unmarked) [Example 21]	8	10	–	–
COC[C@@H]1CN(c2ccc3nc(CCCCC#N)sc3c2)C(=O)O1 [Example 22]	7	75	–	–
COC[C@H]1CN(c2ccc3nc(CCCCC#N)sc3c2)C(=O)O1 [Example 23]	–	–	0.028	IC50 (MAO-B): > 100 µM

Compound	inhibition at 1 µM (MAO-B) [%]	inhibition at 0.1 µM (MAO-A) [%]	IC50 (MAO-A) [µM]	also measured
N#CCCCCc1nc2ccc(N3C[C@H](CO)OC3=O)cc2s1 [Example 24]	–	–	0.137	IC50 (MAO-B): > 100 µM
COC[C@H]1CN(c2ccc3nc(C(C)(C)CCC#N)sc3c2)C(=O)O1 [Example 25]	7	73	–	–
CC(C)(CCC#N)c1nc2ccc(N3C[C@H](CO)OC3=O)cc2s1 [Example 26]	7	73	–	–
COCC1CN(c2ccc3nc(C(O)CCC#N)sc3c2)C(=O)O1 (centres unmarked) [Example 27]	–	–	0.0067	Inhibiting activity MAO-B (% at 10^-6 M) (MAO-B): 10%
COCC1CN(c2ccc3nc(N(C)CCC#N)sc3c2)C(=O)O1 (centres unmarked) [Example 28]	–	–	0.031	IC50 (MAO-B): 990 µM
CN(CCC#N)c1nc2ccc(N3CC(CO)OC3=O)cc2s1 (centres unmarked) [Example 29]	–	–	0.019	IC50 (MAO-B): 2240 µM
COCC1CN(c2ccc3nc(C(O)CCCO)sc3c2)C(=O)O1 (centres unmarked) [Example 30]	15	42	–	–
COCC1CN(c2ccc3nc(C(=O)CCC#N)sc3c2)C(=O)O1 (centres unmarked) [Example 31]	12	54	–	–
COCC1CN(c2ccc3nc(NCCC#N)sc3c2)C(=O)O1 (centres unmarked) [Example 32]	7	23	–	–
N#CCCNc1nc2ccc(N3CC(CO)OC3=O)cc2s1 (centres unmarked) [Example 33]	10	5	–	–
COCC1CN(c2ccc3nc(C4CCC(=O)O4)sc3c2)C(=O)O1 (centres unmarked) [Example 34]	–	–	–	Inhibiting activity MAO-B (% at 10^-6 M) (MAO-B): 8%; Inhibiting activity MAO-A (% at 10^-7 M) (MAO-A): 11%
COCC1CN(c2ccc3nc(C(O)CCC#N)sc3c2)C(=O)O1 (centres unmarked) [Example 35]	–	27	–	Inhibiting activity MAO-B (% at 10^-6 M) (MAO-B): 0%
COCC1CN(c2ccc3nc(C(C)(O)CCC#N)sc3c2)C(=O)O1 (centres unmarked) [Example 36]	1	–	0.0068	–
COCC1CN(c2ccc3nc(C(CCC#N)=NO)sc3c2)C(=O)O1 (centres unmarked) [Example 38]	11	32	–	–
COCC1CN(c2ccc3nc(C(CCC#N)=NOC)sc3c2)C(=O)O1 (centres unmarked) [Example 39]	2	15	–	–
COCC1CN(c2ccc3nc(C(CCC#N)N4CCCC4)sc3c2)C(=O)O1 (centres unmarked) [Example 40]	6	8	–	–
COCC1CN(c2ccc3nc(C(N)CCC#N)sc3c2)C(=O)O1 (centres unmarked) [Example 41]	3	9	–	–
N#CC1CCN(c2nc3ccc(N4CC(CO)OC4=O)cc3s2)CC1 (centres unmarked) [Example 42]	5	63	–	–
